Measurements taken from US20060069132A1, “Azolecarboxamide herbicides” (priority 2004, published 2006).

How the values were obtained:
wheat = assay: Test B postemergence herbicide test; format: in vivo, Triticum aestivum; set-up: key to Wheat plant response rating: 0 = no effect, 100 = complete control; conditions: postemergence
How it was run: (§1)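 Visual ratings, 0 (no effect) to 100 (complete control), made versus controls after 13–15 d greenhouse. Paddy plants treated at 2-leaf stage; postemergence plants at 1- to 4-leaf stage, 2–18 cm tall.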

pigweed = assay: Test B pre-/postemergence herbicide test; format: in vivo, Amaranthus retroflexus; conditions: for Pigweed plant response rating: postemergence
How it was run: (§2)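 Test chemicals in a non-phytotoxic solvent mixture with surfactant were applied preemergence to seeded species and postemergence to plants 2-18 cm tall (1- to 4-leaf stage); rice and barnyardgrass were also tested in a flooded paddy at the 2-leaf stage. Visual rating versus controls after 13-15 days in greenhouse, scale 0 (no effect) to 100 (complete control).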

Surinam grass = assay: Test B pre-/postemergence herbicide test; format: in vivo, Urochloa decumbens; conditions: for Surinam Grass plant response rating: postemergence
How it was run: as §2

morningglory = assay: Test B pre-/postemergence herbicide test; format: in vivo, Ipomoea coccinea; conditions: for Morningglory plant response rating: postemergence
How it was run: (§3)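 Herbicidal effect was judged by eye on a 0–100 scale after plants stood 13 to 15 days in the greenhouse following pre- or postemergence treatment with surfactant-containing formulations.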

rice [1] = assay: Test B flooded paddy test; format: in vivo, Oryza sativa; conditions: 1000 g ai/ha, scale 0 to 100 (0 no effect, 100 complete control)
How it was run: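 Paddy species grown to the 2-leaf stage under flooding; blackgrass sprayed postemergence at 2–18 cm (1- to 4-leaf stage). Plants kept in a greenhouse for 13 to 15 days, then visually rated against controls on 0 (no effect) to 100 (complete control).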

lambsquarters = assay: Test B pre-/postemergence herbicide test; format: in vivo, Chenopodium album; conditions: for Lambsquarters plant response rating: postemergence
How it was run: as §2

corn = assay: Test B pre-/postemergence herbicide test; format: in vivo, Zea mays; conditions: for Corn plant response rating: postemergence
How it was run: as §2

cocklebur = assay: Test B pre-/postemergence herbicide test; format: in vivo, Xanthium strumarium; conditions: for Cocklebur plant response rating: postemergence
How it was run: as §3

giant foxtail = assay: Test B pre-/postemergence herbicide test; format: in vivo, Setaria faberi; conditions: for Foxtail, Giant plant response rating: postemergence
How it was run: as §2

ducksalad [2] = assay: Test B flooded paddy test; format: in vivo, Heteranthera limosa; conditions: 1000 g ai/ha, scale 0 to 100 (0 no effect, 100 complete control)
How it was run: (§4)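 Treated at 2-leaf (paddy) or 1–4-leaf, 2–18 cm (postemergence); greenhouse 13–15 d; visual score vs control, 0 none to 100 complete control; dash = not tested.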

velvetleaf = assay: Test B pre-/postemergence herbicide test; format: in vivo, Abutilon theophrasti; conditions: for Velvetleaf plant response rating: postemergence
How it was run: as §2

rice [3] = assay: Test C flooded paddy test; format: in vivo, Oryza sativa
How it was run: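 Plants were grown to the 1- to 4-leaf stage (2–18 cm) and then treated postemergence, or grown to the 2-leaf stage for the flooded paddy test. They were held in a greenhouse for 12 to 14 days and then scored by eye against controls, where 0 is no effect and 100 is complete control.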

[4] = system: small flower umbrella sedge; assay: Test B flooded paddy test; format: in vivo, Cyperus difformis; conditions: 1000 g ai/ha, scale 0 to 100 (0 no effect, 100 complete control)
How it was run: as §4

blackgrass = assay: Test B postemergence herbicide test; format: in vivo, Alopecurus myosuroides; conditions: postemergence
How it was run: as §4

barnyardgrass [5] = assay: Test B pre-/postemergence herbicide test; format: in vivo, Echinochloa crus-galli; conditions: for Barnyardgrass plant response rating: postemergence
How it was run: as §3

wild oat = assay: Test B postemergence herbicide test; format: in vivo, Avena fatua; conditions: postemergence
How it was run: as §1

barnyardgrass [6] = assay: Test C flooded paddy test; format: in vivo, Echinochloa crus-galli
How it was run: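 Injury scored visually against controls on a 0 (no effect) to 100 (complete control) scale, 12 to 14 days after treatment in greenhouse. Flooded paddy plants treated at 2-leaf stage; postemergence plants at 1- to 4-leaf stage, 2 to 18 cm tall.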

barnyardgrass [7] = assay: Test B flooded paddy test; format: in vivo, Echinochloa crus-galli; conditions: 1000 g ai/ha, scale 0 to 100 (0 no effect, 100 complete control)
How it was run: as §4

[8] = system: smallflower umbrella sedge; assay: Test C flooded paddy test; format: in vivo, Cyperus difformis
ducksalad [9] = assay: Test C flooded paddy test; format: in vivo, Heteranthera limosa
large crabgrass = assay: Test B pre-/postemergence herbicide test; format: in vivo, Digitaria sanguinalis; conditions: for Crabgrass, Large plant response rating: postemergence
How it was run: as §2

[10] = 125 g ai/ha, visual rating, scale 0 (no effect) to 100 (complete control)
[11] = 500 g ai/ha, scale 0 to 100, 0 is no effect, 100 is complete control
[12] = 125 g ai/ha, 0 is no effect, 100 is complete control, preemergence
[13] = 500 g ai/ha, visual rating, 0 = no effect, 100 = complete control, preemergence
[14] = 125 g ai/ha, scale 0 to 100 (0 no effect, 100 complete control)
[15] = 250 g ai/ha, scale of 0 to 100, 0 is no effect, 100 is complete control
[16] = 500 g ai/ha, visual rating after 12 to 14 days, scale 0 to 100 (0 no effect, 100 complete control)

SMILES: CCc1nn(C(C)C)nc1C(=O)Nc1cccc(C(=O)N2CC=CC2)c1 [Compound 359]
- Wheat plant response rating (wheat; [10]): 0
- Wheat plant response rating (wheat; [11]): 20
- Plant response rating (0 to 100 scale), Pigweed (pigweed; [12]): 0
- Pigweed plant response rating (pigweed; [10]): 20
- Plant response rating, Pigweed (pigweed; [13]): 100
- Pigweed plant response rating (pigweed; [11]): 50
- Plant response rating (0 to 100 scale), Surinam Grass (Surinam grass; [12]): 20
- Surinam Grass plant response rating (Surinam grass; [10]): 10
- Plant response rating, Surinam Grass (Surinam grass; [13]): 70
- Surinam Grass plant response rating (Surinam grass; [11]): 10
- Plant response rating (0 to 100 scale), Morningglory (morningglory; [12]): 0
- Morningglory plant response rating (morningglory; [10]): 10
- Plant response rating, Morningglory (morningglory; [13]): 50
- Morningglory plant response rating (morningglory; [11]): 10
- Rice plant response rating (rice [1]): 70
- Plant response rating (0 to 100 scale), Lambsquarters (lambsquarters; [12]): 0
- Lambsquarters plant response rating (lambsquarters; [10]): 40
- Plant response rating, Lambsquarters (lambsquarters; [13]): 100
- Lambsquarters plant response rating (lambsquarters; [11]): 50
- Plant response rating (0 to 100 scale), Corn (corn; [12]): 0
- Corn plant response rating (corn; [10]): 10
- Plant response rating, Corn (corn; [13]): 60
- Corn plant response rating (corn; [11]): 10
- Plant response rating (0 to 100 scale), Cocklebur (cocklebur; [12]): 0
- Cocklebur plant response rating (cocklebur; [10]): 10
- Plant response rating, Cocklebur (cocklebur; [13]): 30
- Cocklebur plant response rating (cocklebur; [11]): 30
- Plant response rating (0 to 100 scale), Foxtail, Giant (giant foxtail; [12]): 60
- Foxtail, Giant plant response rating (giant foxtail; [10]): 20
- Plant response rating, Foxtail, Giant (giant foxtail; [13]): 100
- Foxtail, Giant plant response rating (giant foxtail; [11]): 20
- Ducksalad plant response rating (ducksalad [2]): 70
- Plant response rating (0 to 100 scale), Velvetleaf (velvetleaf; [12]): 0
- Velvetleaf plant response rating (velvetleaf; [10]): 20
- Velvetleaf plant response rating (velvetleaf; [11]): 20
- Rice plant response rating (rice [3]; 62 g ai/ha, scale 0 to 100): 20
- Rice plant response rating (rice [3]; [14]): 45
- Rice plant response rating (rice [3]; [15]): 65
- Plant response rating, Rice (rice [3]; [16]): 80
- Sedge, Umbrella plant response rating [4]: 80
- Blackgrass plant response rating (blackgrass; [10]): 20
- Blackgrass plant response rating (blackgrass; [11]): 50
- Plant response rating (0 to 100 scale), Barnyardgrass (barnyardgrass [5]; [12]): 0
- Barnyardgrass plant response rating (barnyardgrass [5]; [10]): 10
- Plant response rating, Barnyardgrass (barnyardgrass [5]; [13]): 90
- Barnyardgrass plant response rating (barnyardgrass [5]; [11]): 10
- Oat, Wild plant response rating (wild oat; [10]): 20
- Oat, Wild plant response rating (wild oat; [11]): 30
- Barnyardgrass plant response rating (barnyardgrass [6]; 62 g ai/ha, scale 0 to 100 (0 no effect, 100 complete control)): 15
- Barnyardgrass plant response rating (barnyardgrass [6]; [14]): 55
- Barnyardgrass plant response rating (barnyardgrass [6]; [15]): 75
- Plant response rating, Barnyardgrass (barnyardgrass [6]; [16]): 75
- Barnyardgrass plant response rating (barnyardgrass [7]): 70
- Sedge, Umbrella plant response rating ([8]; 62 g ai/ha, scale 0 to 100): 80
- Sedge, Umbrella plant response rating [8, 14]: 90
- Sedge, Umbrella plant response rating [8, 15]: 90
- Plant response rating, Sedge, Umbrella [8, 16]: 95
- Ducksalad plant response rating (ducksalad [9]; 62 g ai/ha, scale 0 to 100): 40
- Ducksalad plant response rating (ducksalad [9]; [14]): 80
- Ducksalad plant response rating (ducksalad [9]; [15]): 85
- Plant response rating, Ducksalad (ducksalad [9]; [16]): 90
- Plant response rating (0 to 100 scale), Crabgrass, Large (large crabgrass; [12]): 90
- Crabgrass, Large plant response rating (large crabgrass; [10]): 10
- Plant response rating, Crabgrass, Large (large crabgrass; [13]): 100
- Crabgrass, Large plant response rating (large crabgrass; [11]): 20
